Data published in patent US6075013A, “Modified low molecular weight heparin that inhibits clot associated coagulation factors” (Hamilton Civic Hospitals Research Development Inc., priority 1998, dated 2000).

B1: prothrombin fragment 2 (F2): prothrombin fragment 2, binds to exosite 2 of thrombin (protein, UniProt P00734 199-327, looked up)
Activation peptide fragment 2: SEGSSVNLSPPLEQCVPDRGQQYQGRLAVTTHGLPCLAWASAQAKALSKHQDFNSAVQLVENFCRNPDGDEEGVWCYVAGKPGDFGYCDLNYCEEAVEEETGDGLDEDSDRAIEGRTATSEYQTFFNPR
modifications: Activation peptide fragment 2

Experiments:
washed plasma clot = experiment: procoagulant activity of washed plasma clot in unanticoagulated whole blood; assay type: biochemical; settings: washed plasma clot incubated in unanticoagulated whole blood
From the text: There is mounting evidence that both fibrin-bound thrombin and platelet-bound factor Xa contribute to the intense procoagulant activity of thrombi. […] Development of these agents requires an understanding of the mechanisms by which fibrin-bound IIa and platelet-bound factor Xa are protected from inactivation by heparin, LMWH and hirudin.

injured rabbit aorta = experiment: rabbit arterial thrombosis prevention model; assay type: in vivo; settings: over the doses tested
Protocol: The arterial thrombosis prevention model was modified so that both efficacy and safety could be assessed in the same animal. […] The four compounds were compared at three dosage levels. Each compound was administered as a bolus and infusion for 90 minutes. The doses listed in the following figures represent the bolus and infusion/60 minutes, administered for 90 minutes. The doses for heparin are shown as units/Kg, for LMWH and V21 as mg/Kg and for hirudin as mg/Kg. […] Thus, the specific activity of LMWH is 100 anti-Xa/mg and 30 anti-IIa units/mg. […] The anticoagulants were compared in the following dosages. Heparin 50 units/Kg and 75 unit/Kg; LMWH and V21 0.5, 1.0 and 1.5 mg/Kg; Hirudin 0.1/0.1, 0.1/0.2 and 0.1/0.3 mg/Kg.
FIG. 11 compares the efficacy of the four anticoagulants using cumulative time that the aorta remained patent over the 90 minutes of observation as the outcome measure of efficacy. One hundred percent accumulated patency reflects complete patency and 0% cumulative patency reflects immediate and sustained thrombotic occlusion.

[1] = molecular target: thrombin (IIa) binding to fibrin (Homo sapiens, UniProt P00734); experiment: effect on thrombin (IIa) binding to fibrin / fibrin monomer-sepharose; settings: presence of 250 nM heparin
Protocol: FIGS. 1A and 1B illustrate the effects of varying heparin concentrations on thrombin (IIa) binding to fibrin (A) and on thrombin's apparent affinity for fibrin (B).
FIG. 3 illustrates the effect of hirugen (Hg), prothrombin fragment 2 (F2) or antibody against exosite 2 (Wab) on thrombin (IIa) binding to fibrin monomersepharose in the absence or presence of 250 nM heparin.
FIG. 9 illustrates the effect of unfractionated heparin (UFH) and a 6,000 Da heparin fraction (MLMWH) on thrombin (IIa) binding to fibrin.
When heparin is present, the amount of thrombin that binds to fibrin changes, as does the mode of thrombin interaction with fibrin.
The mode of thrombin binding also changes in the presence of heparin. Whereas thrombin binds to fibrin via exosite 1 in the absence of heparin, enhanced α-thrombin binding seen in the presence of heparin is mediated by exosite 2 because heparin augments the binding of γ-thrombin to the same extent as α-thrombin but has little effect on the binding of RA-thrombin (FIG. 2). Furthermore, excess α-thrombin bound in the presence of heparin is displaced with an antibody to exosite 2 or with prothrombin fragment 2 (F2) which, like heparin, also binds to exosite 2 (Arni, R. K., et al. (1993) Biochemistry 32:4727-4737). […]

Molecule	block of the clot's ability to accelerate coagulation (washed plasma clot)	response of the model to the antithrombotic effects (injured rabbit aorta)	effect on heparin-dependent binding of thrombin to fibrin [1]
TAP: tick anticoagulant peptide, a direct inhibitor of factor Xa (YNRLCIKPRDWIDECDSNEGGERAYFRNGKGGCDSFWICPEDHTGADYYSSYRDCFNACI; UniProt P17726 1-60, looked up)	cannot be blocked	–	–
hirudin	cannot be blocked	very responsive	–
B1	–	–	displaced
